Assays:
[1] = target: MAP kinase-interacting serine/threonine-protein kinase 1 (Homo sapiens) (UniProt Q9BUB5); experiment: Inhibition of MKNK1 (unknown origin) at 100 nM
[2] = target: Serine/threonine-protein kinase pim-2 (Homo sapiens) (UniProt Q9P1W9); experiment: Inhibition of PIM2 (unknown origin) at 100 nM
[3] = target: Serine/threonine-protein kinase PAK 2 (Homo sapiens) (UniProt Q13177); experiment: Inhibition of PAK2 (unknown origin) at 100 nM
[4] = target: Phosphatidylinositol 4-phosphate 3-kinase C2 domain-containing subunit alpha (Homo sapiens) (UniProt O00443); experiment: Inhibition of PI3KC2A (unknown origin) at 100 nM
[5] = target: Tyrosine-protein kinase JAK3 (Homo sapiens) (UniProt P52333); experiment: Inhibition of JAK3 (unknown origin) at 100 nM
[6] = target: Tyrosine-protein kinase Mer (Homo sapiens) (UniProt Q12866); experiment: Inhibition of MER (unknown origin) at 100 nM
[7] = target: TGF-beta receptor type-1 (Homo sapiens) (UniProt P36897); experiment: Inhibition of TGFBR1 (unknown origin) at 100 nM
[8] = target: Bone morphogenetic protein receptor type-1A (Homo sapiens) (UniProt P36894); experiment: Inhibition of BMPR1A (unknown origin) at 100 nM
[9] = target: Activin receptor type-1B (Homo sapiens) (UniProt P36896); experiment: Inhibition of ACVR1B (unknown origin) at 100 nM
[10] = target: Receptor-interacting serine/threonine-protein kinase 2 (Homo sapiens) (UniProt O43353); experiment: Inhibition of RIPK2 (unknown origin) at 100 nM
[11] = target: Calcium/calmodulin-dependent protein kinase kinase 1 (Homo sapiens) (UniProt Q8N5S9); experiment: Inhibition of CaMKK1 (unknown origin) at 100 nM
[12] = target: Sphingosine kinase 1 (Homo sapiens) (UniProt Q9NYA1); experiment: Inhibition of SPHK1 (unknown origin) at 100 nM
[13] = target: Eukaryotic elongation factor 2 kinase (Homo sapiens) (UniProt O00418); experiment: Inhibition of EEF2K (unknown origin) at 100 nM
[14] = target: Ribosomal protein S6 kinase alpha-4 (Homo sapiens) (UniProt O75676); experiment: Inhibition of MSK2 (unknown origin) at 100 nM
[15] = target: Homeodomain-interacting protein kinase 3 (Homo sapiens) (UniProt Q9H422); experiment: Inhibition of HIPK3 (unknown origin) at 100 nM
[16] = target: Casein kinase I isoform gamma-1 (Homo sapiens) (UniProt Q9HCP0); experiment: Inhibition of CK1gamma1 (unknown origin) at 100 nM
[17] = target: Tyrosine-protein kinase FRK (Homo sapiens) (UniProt P42685); experiment: Inhibition of FRK (unknown origin) at 100 nM
[18] = target: Aurora kinase C (Homo sapiens) (UniProt Q9UQB9); experiment: Inhibition of Aurora C (unknown origin) at 100 nM
[19] = target: Proto-oncogene tyrosine-protein kinase Src (Homo sapiens) (UniProt P12931); experiment: Inhibition of SRCN1 (unknown origin) at 100 nM
[20] = target: Mitogen-activated protein kinase 14 (Homo sapiens) (UniProt Q16539); experiment: Inhibition of p38alpha (unknown origin) at 100 nM
[21] = target: Tyrosine-protein kinase Tec (Homo sapiens) (UniProt P42680); experiment: Inhibition of TEC (unknown origin) at 100 nM
[22] = target: Mitogen-activated protein kinase kinase kinase 20 (Homo sapiens) (UniProt Q9NYL2); experiment: Inhibition of ZAK (unknown origin) at 100 nM
[23] = target: Calcium/calmodulin-dependent protein kinase type 1D (Homo sapiens) (UniProt Q8IU85); experiment: Inhibition of CaMKIdelta (unknown origin) at 100 nM
[24] = target: Ephrin type-B receptor 1 (Homo sapiens) (UniProt P54762); experiment: Inhibition of EPHB1 (unknown origin) at 100 nM
[25] = target: Serine/threonine-protein kinase Sgk2 (Homo sapiens) (UniProt Q9HBY8); experiment: Inhibition of SGK2 (unknown origin) at 100 nM
[26] = target: Testis-specific serine/threonine-protein kinase 1 (Homo sapiens) (UniProt Q9BXA7); experiment: Inhibition of TSSK1 (unknown origin) at 100 nM
[27] = target: Protein kinase C eta type (Homo sapiens) (UniProt P24723); experiment: Inhibition of PKCeta (unknown origin) at 100 nM
[28] = target: Serine/threonine-protein kinase SIK2 (Homo sapiens) (UniProt Q9H0K1); experiment: Inhibition of SIK2 (unknown origin) at 100 nM
[29] = target: Ephrin type-B receptor 3 (Homo sapiens) (UniProt P54753); experiment: Inhibition of EPHB3 (unknown origin) at 100 nM
Homo sapiens = species on record: Homo sapiens; experiment: Inhibition of SRM (unknown origin) at 100 nM
[30] = target: Serine/threonine-protein kinase B-raf (Homo sapiens) (UniProt P15056); experiment: Inhibition of B-Raf (unknown origin) at 100 nM
[31] = target: Mitogen-activated protein kinase kinase kinase 10 (Homo sapiens) (UniProt Q02779); experiment: Inhibition of MLK2 (unknown origin) at 100 nM
[32] = target: Insulin receptor-related protein (Homo sapiens) (UniProt P14616); experiment: Inhibition of IRR (unknown origin) at 100 nM
[33] = target: Ephrin type-A receptor 8 (Homo sapiens) (UniProt P29322); experiment: Inhibition of EPHA8 (unknown origin) at 100 nM
[34] = target: Protein kinase C alpha type (Homo sapiens) (UniProt P17252); experiment: Inhibition of PKCalpha (unknown origin) at 100 nM
[35] = target: MAP kinase-activated protein kinase 3 (Homo sapiens) (UniProt Q16644); experiment: Inhibition of MAPKAPK3 (unknown origin) at 100 nM
[36] = target: Ephrin type-B receptor 4 (Homo sapiens) (UniProt P54760); experiment: Inhibition of EPHB4 (unknown origin) at 100 nM
[37] = target: Serine/threonine-protein kinase 17A (Homo sapiens) (UniProt Q9UEE5); experiment: Inhibition of DRAK1 (unknown origin) at 100 nM
[38] = target: Dual specificity tyrosine-phosphorylation-regulated kinase 1A (Homo sapiens) (UniProt Q13627); experiment: Inhibition of DYRK1A (unknown origin) at 100 nM
[39] = target: Dual specificity mitogen-activated protein kinase kinase 3 (Homo sapiens) (UniProt P46734); experiment: Inhibition of MEK3 (unknown origin) at 100 nM
[40] = target: Calcium/calmodulin-dependent protein kinase type 1 (Homo sapiens) (UniProt Q14012); experiment: Inhibition of CaMKI (unknown origin) at 100 nM
[41] = target: Dual specificity mitogen-activated protein kinase kinase 6 (Homo sapiens) (UniProt P52564); experiment: Inhibition of MKK6 (unknown origin) at 100 nM
[42] = test system: Platelet-derived growth factor receptor alpha (Homo sapiens), P16234 [D842V]; experiment: Inhibition of PDGFRalpha D842V mutant (unknown origin) at 100 nM

Sequence of Activin receptor type-1B (Homo sapiens) (P36896 whole entry): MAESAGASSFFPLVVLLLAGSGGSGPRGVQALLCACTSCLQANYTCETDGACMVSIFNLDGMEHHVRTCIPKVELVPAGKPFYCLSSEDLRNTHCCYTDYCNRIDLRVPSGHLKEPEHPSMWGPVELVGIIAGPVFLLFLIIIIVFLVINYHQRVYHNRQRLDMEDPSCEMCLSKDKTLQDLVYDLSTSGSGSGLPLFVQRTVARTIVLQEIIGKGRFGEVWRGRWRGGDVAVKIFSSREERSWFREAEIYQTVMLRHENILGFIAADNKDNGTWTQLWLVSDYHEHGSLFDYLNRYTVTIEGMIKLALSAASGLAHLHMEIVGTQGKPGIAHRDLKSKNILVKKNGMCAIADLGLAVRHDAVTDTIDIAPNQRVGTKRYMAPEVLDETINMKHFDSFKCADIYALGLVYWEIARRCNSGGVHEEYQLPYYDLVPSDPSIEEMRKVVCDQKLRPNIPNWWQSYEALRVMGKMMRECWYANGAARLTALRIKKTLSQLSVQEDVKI
Sequence of Ephrin type-B receptor 1 (Homo sapiens) (P54762 whole entry): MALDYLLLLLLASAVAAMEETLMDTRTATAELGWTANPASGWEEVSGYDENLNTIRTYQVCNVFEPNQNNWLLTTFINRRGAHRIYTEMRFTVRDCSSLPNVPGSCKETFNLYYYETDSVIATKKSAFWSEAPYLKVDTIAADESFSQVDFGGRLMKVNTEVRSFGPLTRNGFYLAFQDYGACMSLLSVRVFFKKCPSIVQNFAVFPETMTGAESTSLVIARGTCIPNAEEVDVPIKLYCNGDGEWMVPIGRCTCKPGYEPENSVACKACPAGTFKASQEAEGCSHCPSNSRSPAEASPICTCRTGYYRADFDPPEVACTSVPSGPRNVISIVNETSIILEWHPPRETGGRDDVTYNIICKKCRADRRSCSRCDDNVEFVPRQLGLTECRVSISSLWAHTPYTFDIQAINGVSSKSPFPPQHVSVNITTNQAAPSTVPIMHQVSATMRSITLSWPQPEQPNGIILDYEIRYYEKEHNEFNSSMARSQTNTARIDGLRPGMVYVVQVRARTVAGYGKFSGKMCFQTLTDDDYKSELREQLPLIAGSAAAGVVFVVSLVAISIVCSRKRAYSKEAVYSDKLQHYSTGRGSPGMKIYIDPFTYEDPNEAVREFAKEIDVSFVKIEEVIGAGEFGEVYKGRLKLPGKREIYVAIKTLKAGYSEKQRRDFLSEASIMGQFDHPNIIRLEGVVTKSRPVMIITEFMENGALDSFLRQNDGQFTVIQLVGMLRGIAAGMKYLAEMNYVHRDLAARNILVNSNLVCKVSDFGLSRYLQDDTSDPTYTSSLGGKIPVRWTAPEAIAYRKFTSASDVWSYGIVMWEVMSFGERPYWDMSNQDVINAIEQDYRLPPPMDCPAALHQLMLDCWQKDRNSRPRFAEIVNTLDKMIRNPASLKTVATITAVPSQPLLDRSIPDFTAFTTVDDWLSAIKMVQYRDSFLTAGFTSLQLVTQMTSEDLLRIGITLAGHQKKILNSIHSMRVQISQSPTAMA
Sequence of Receptor-interacting serine/threonine-protein kinase 2 (Homo sapiens) (O43353 whole entry): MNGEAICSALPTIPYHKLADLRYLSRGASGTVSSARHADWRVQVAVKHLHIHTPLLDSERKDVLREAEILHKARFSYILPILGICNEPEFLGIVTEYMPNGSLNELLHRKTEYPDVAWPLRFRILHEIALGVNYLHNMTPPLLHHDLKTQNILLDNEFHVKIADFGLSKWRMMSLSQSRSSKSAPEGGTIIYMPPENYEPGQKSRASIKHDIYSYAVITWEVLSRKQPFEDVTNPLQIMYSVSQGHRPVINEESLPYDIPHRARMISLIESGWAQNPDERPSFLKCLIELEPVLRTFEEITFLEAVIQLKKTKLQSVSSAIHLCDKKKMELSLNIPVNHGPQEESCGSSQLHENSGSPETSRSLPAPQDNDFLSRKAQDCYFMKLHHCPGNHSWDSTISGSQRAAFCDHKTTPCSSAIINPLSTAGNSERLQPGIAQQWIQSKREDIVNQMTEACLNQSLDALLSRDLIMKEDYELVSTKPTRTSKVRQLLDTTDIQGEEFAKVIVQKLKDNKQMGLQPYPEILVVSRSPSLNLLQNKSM
Sequence of Ephrin type-B receptor 4 (Homo sapiens) (P54760 whole entry): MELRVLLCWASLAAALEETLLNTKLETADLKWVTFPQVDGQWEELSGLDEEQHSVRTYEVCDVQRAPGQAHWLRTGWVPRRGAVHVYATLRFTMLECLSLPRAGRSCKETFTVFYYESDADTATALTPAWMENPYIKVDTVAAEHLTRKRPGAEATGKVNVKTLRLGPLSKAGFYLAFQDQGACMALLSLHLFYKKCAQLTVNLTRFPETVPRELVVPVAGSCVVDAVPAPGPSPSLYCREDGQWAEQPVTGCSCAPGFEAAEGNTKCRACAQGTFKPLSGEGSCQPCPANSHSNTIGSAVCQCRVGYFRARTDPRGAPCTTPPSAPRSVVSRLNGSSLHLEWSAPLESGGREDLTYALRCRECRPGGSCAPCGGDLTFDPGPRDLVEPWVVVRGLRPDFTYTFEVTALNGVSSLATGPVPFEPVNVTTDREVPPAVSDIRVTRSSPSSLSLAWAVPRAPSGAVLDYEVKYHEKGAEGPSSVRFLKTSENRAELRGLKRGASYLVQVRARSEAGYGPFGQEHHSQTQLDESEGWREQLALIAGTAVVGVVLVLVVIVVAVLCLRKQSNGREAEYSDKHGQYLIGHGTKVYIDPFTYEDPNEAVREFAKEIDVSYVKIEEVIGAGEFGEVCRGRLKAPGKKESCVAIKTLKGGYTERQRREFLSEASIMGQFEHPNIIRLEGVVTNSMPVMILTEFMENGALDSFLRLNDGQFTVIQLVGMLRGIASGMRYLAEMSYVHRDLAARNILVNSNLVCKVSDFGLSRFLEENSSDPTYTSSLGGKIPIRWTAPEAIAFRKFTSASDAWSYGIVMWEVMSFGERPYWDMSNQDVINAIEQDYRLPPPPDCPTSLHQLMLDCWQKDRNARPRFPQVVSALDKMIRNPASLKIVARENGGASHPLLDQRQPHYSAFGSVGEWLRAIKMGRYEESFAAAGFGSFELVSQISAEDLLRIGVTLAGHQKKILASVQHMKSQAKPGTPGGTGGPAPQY
Sequence of Ephrin type-A receptor 8 (Homo sapiens) (P29322 whole entry): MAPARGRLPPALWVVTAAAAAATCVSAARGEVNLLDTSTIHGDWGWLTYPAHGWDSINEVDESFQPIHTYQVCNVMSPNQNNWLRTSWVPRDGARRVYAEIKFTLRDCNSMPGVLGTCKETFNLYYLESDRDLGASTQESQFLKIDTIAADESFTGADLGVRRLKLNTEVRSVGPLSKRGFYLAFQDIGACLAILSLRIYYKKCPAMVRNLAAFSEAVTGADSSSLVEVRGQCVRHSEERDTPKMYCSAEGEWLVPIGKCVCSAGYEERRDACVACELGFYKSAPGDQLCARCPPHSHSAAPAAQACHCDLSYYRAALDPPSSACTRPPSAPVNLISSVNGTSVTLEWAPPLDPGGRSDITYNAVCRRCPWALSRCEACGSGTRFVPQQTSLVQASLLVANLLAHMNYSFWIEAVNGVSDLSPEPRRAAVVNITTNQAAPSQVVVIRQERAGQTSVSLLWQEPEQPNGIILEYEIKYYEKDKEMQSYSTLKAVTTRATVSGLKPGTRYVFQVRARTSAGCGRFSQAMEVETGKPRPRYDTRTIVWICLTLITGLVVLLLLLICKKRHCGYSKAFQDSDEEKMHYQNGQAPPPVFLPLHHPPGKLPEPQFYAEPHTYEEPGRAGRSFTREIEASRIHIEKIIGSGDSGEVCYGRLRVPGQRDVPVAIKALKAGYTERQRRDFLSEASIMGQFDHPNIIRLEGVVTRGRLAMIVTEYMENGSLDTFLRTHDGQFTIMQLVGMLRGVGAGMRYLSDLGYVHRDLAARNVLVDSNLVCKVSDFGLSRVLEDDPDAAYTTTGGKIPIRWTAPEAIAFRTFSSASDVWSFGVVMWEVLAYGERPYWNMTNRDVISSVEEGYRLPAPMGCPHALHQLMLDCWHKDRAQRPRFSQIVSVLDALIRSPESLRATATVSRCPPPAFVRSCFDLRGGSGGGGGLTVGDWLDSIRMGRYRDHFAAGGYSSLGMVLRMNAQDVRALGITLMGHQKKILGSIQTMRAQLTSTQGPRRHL
Sequence of Protein kinase C eta type (Homo sapiens) (P24723 whole entry): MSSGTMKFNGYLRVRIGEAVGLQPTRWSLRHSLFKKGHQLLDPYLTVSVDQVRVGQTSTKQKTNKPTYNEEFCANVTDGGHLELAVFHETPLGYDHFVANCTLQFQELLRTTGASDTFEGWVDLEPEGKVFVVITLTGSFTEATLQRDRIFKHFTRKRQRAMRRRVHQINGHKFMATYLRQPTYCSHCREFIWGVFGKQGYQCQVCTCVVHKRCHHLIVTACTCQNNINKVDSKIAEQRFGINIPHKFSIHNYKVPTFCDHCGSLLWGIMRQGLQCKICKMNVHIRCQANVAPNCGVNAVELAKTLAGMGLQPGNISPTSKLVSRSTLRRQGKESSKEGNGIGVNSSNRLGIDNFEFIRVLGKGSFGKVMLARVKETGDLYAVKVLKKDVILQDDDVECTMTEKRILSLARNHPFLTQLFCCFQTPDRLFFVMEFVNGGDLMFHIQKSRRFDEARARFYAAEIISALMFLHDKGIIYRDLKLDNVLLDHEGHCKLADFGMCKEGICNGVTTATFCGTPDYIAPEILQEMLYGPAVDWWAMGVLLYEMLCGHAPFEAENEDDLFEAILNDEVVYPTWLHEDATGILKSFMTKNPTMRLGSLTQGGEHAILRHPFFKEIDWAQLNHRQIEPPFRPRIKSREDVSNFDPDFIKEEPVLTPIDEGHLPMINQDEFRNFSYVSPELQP
Sequence of Calcium/calmodulin-dependent protein kinase type 1 (Homo sapiens) (Q14012 whole entry, looked up): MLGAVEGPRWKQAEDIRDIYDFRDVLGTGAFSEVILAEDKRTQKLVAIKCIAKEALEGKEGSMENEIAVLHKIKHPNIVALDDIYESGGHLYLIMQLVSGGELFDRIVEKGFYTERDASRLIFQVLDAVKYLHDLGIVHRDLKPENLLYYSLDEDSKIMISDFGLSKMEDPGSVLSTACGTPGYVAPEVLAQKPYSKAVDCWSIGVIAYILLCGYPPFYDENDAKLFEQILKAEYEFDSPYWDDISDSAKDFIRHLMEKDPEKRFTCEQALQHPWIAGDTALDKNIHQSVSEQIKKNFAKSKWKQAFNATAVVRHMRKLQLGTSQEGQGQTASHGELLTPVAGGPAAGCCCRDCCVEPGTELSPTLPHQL

inhibition [1]: 2.3% | inhibition [2]: 3.1% | inhibition [3]: 0.3% | inhibition [4]: 2.9% | inhibition [5]: 2.7% | inhibition [6]: 6.3% | inhibition [7]: 97.9% | inhibition [8]: 16.8% | inhibition [9]: 70.7% | inhibition [10]: 97.2% | inhibition [11]: 7% | inhibition [12]: 0% | inhibition [13]: 7.5% | inhibition [14]: 15.2% | inhibition [15]: 8.6% | inhibition [16]: 1.3% | inhibition [17]: 85.6% | inhibition [18]: 1.2% | inhibition [19]: 47.2% | inhibition [20]: 44.5% | inhibition [21]: 0.1% | inhibition [22]: 11.4% | inhibition [23]: -5.3% | inhibition [24]: 22% | inhibition [25]: 2.8% | inhibition [26]: -0.5% | inhibition [27]: 15.5% | inhibition [28]: 35.3% | inhibition [29]: 20.1% | inhibition (Homo sapiens): 17.3% | inhibition [30]: 59.3% | inhibition [31]: 2.3% | inhibition [32]: 12% | inhibition [33]: 24.9% | inhibition [34]: 7% | inhibition [35]: 5.4% | inhibition [36]: 40.7% | inhibition [37]: 1.1% | inhibition [38]: 9.6% | inhibition [39]: 14.1% | inhibition [40]: 4.5% | inhibition [41]: -0.9% | inhibition [42]: 77.3%
SMILES: CC1(C)OCc2c(Nc3n[nH]c4ccccc34)nc(-c3cn[nH]c3)nc21

Source: ChEMBL document CHEMBL3758169, “4-Aminoindazolyl-dihydrofuro[3,4-d]pyrimidines as non-covalent inhibitors of mutant epidermal growth factor receptor tyrosine kinase” (Bioorg Med Chem Lett, 2016)
